pIC50: −log10 of the molar value.
What was measured:
Human recombinant renin = molecular target: T1, Human recombinant renin (Homo sapiens, UniProt P00797); assay: Inhibition of human recombinant renin (QFRET, buffer); type: biochemical; conditions: buffer: 50 mM MOPS pH 7.4, 100 mM NaCl, 0.002% Tween 20; 37° C., 3 hours
T1 construct: purchased Proteos
T1 sequence (P00797 67-406): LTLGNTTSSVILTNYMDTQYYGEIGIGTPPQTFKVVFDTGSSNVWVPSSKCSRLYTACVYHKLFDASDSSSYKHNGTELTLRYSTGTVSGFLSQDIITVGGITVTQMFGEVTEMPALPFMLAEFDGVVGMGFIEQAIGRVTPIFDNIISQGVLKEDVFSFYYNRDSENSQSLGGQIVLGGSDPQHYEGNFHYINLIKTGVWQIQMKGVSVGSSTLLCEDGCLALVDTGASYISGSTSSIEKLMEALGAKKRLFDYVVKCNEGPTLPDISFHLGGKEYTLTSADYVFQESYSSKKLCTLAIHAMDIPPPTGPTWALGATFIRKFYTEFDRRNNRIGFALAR
Method: Inhibition of Human Recombinant Renin
Human recombinant renin (Proteos) in 50 mM MOPS pH 7.4, 100 mM NaCl, 0.002% Tween 20 at a final concentration of […] is incubated with inhibitors from a 50 fold concentrated DMSO solution and 6 μM of an internally-quenched fluorescent peptide: DNP-[…]D,L-Amp (SEQ ID NO: 1); Paschalidou K. et al., Biochem J., 2004, 382, 1031). The reactions take place in a Costar 384 well black plate (#3573) at 37° C. for 3 hours. Fluorescence is measured at times 0 and 3 hours with a SpectraMax Gemini EM reader set at an excitation wavelength of 328 nm and at an emission wavelength of 388 nm. Background fluorescence at t=0 is subtracted from the measurement at t=3 hours. Inhibitory activity of the compounds is expressed as IC50.

[1] = molecular target: T2, recombinant renin in human plasma (Homo sapiens, UniProt P00797); assay: Inhibition of renin in human plasma (QFRET, plasma); type: biochemical; conditions: human EDTA plasma with 1 nM recombinant renin added; 37° C., 1 hour
T2 construct: purchased Proteos
T2 sequence (P00797 67-406): T1 sequence (P00797 67-406)
Method: Inhibition of Renin in Human Plasma
Human EDTA-collected plasma is rapidly thawed in warm water and centrifuged at 2900 g for 15 minutes at 4° C. The supernatant is collected and recombinant renin (Proteos) is added at a final concentration of 1 nM. The plasma is transferred to a Costar black 384 well plate (#3573). Renin inhibitors are added from a 17.5 fold concentrated DMSO solution and pre-incubated at 37° C. for 10 minutes. The internally-quench fluorescent peptide QXL520™-[…](5-FAM) (Anaspec), SEQ ID NO: 2, is diluted in 3M Tris pH 7.2, 200 mM EDTA and added to the plasma. The final concentrations are: 6 μM substrate, 342 mM Tris, 23 mM EDTA. The plate is incubated at 37° C. for 1 hour. The plate is read in a SpectraMax Gemini EM reader set at an excitation wavelength of 490 nm and an emission wavelength of 520 nm at times 0 and 1 hour. Background fluorescence at t=0 is subtracted from the measurement at t=1 hour. Inhibitory activity of the compounds is expressed as IC50.

Structure (SMILES) | pIC50 (Human recombinant renin) | pIC50 [1]
COCCCc1ccccc1-c1ccc([C@H]2CNCC[C@@H]2c2ccccc2)c(C)c1 (racemic) [Structure 1] | 6.21 | < 5.00
COCCCc1ccccc1-c1ccc([C@H]2CNCC[C@@H]2c2cccnc2)c(C)c1 (racemic) [Structure 2] | 7.74 | 6.51
CC(=O)NCCc1ccccc1-c1ccc([C@H]2CNCC[C@@H]2c2cccnc2)c(C)c1 (racemic) [Structure 3] | 8.04 | 7.39
COCCCc1cc(OCCOC)ccc1-c1ccc([C@H]2CNCC[C@@H]2c2cccnc2)c(C)c1 (racemic) [Structure 6] | 6.42 | 5.74
Cc1cc(-c2ccccc2CCCO)ccc1[C@H]1CNCC[C@@H]1c1cc(F)cc(F)c1 (racemic) [Structure 7, (+/−)-trans-3-{4′-[4-(3,5-difluorophenyl)piperidin-3-yl]-3′-methylbiphenyl-2-yl}propan-1-ol] | 7.07 | 5.50
COCCCc1ccccc1-c1ccc([C@H]2CNCC[C@@H]2c2cc(F)cc(F)c2)c(C)c1 (racemic) [Structure 8] | 8.37 | 5.93
Cc1cc(-c2ccccc2CCCO)ccc1[C@H]1CNCC[C@@H]1c1cccc2nc[nH]c12 (racemic) [Structure 9] | 6.00 | < 5.02
COCCCc1ccccc1-c1ccc([C@H]2CNCC[C@@H]2c2cccc3nc[nH]c23)c(Cl)c1 (racemic) [Structure 10] | 8.46 | 5.69
COCCCc1ccccc1-c1ccc([C@H]2CNCC[C@@H]2c2cccnc2)c(Cl)c1 (racemic) [Structure 11] | 8.57 | 7.18
COCCCc1cccc(C)c1-c1ccc([C@H]2CNCC[C@@H]2c2cccnc2)c(C)c1 (racemic) [Structure 12] | 8.00 | 6.82
CC(=O)NCCc1ccccc1-c1ccc([C@H]2CNCC[C@@H]2c2cc(F)cc(F)c2)c(C)c1 (racemic) [Structure 15] | 8.80 | 7.74
CCC(=O)NCCc1ccccc1-c1ccc([C@H]2CNCC[C@@H]2c2cc(F)cc(F)c2)c(C)c1 (racemic) [Structure 18] | 9.19 | 8.89
Cc1cc(-c2ccccc2CCNS(C)(=O)=O)ccc1[C@H]1CNCC[C@@H]1c1cc(F)cc(F)c1 (racemic) [Structure 19] | 7.15 | 5.74
Cc1cc(-c2ccccc2CCNC(=O)C(F)(F)F)ccc1[C@H]1CNCC[C@@H]1c1cc(F)cc(F)c1 (racemic) [Structure 20] | 9.24 | 7.60
Cc1cc(-c2ccccc2CCNC(=O)C(C)C)ccc1[C@H]1CNCC[C@@H]1c1cc(F)cc(F)c1 (racemic) [Structure 21] | 7.85 | 5.94
Cc1cc(-c2ccccc2CCNC(=O)c2ccccc2)ccc1[C@H]1CNCC[C@@H]1c1cc(F)cc(F)c1 (racemic) [Structure 22] | 7.70 | 5.93
Cc1cc(-c2ccccc2CCNC(=O)c2ccn(C)n2)ccc1[C@H]1CNCC[C@@H]1c1cc(F)cc(F)c1 (racemic) [Structure 23] | 7.59 | 7.16
Cc1cc(-c2ccccc2CCNC(=O)c2cnn(C)c2)ccc1[C@H]1CNCC[C@@H]1c1cc(F)cc(F)c1 (racemic) [Structure 24] | 7.14 | 6.00
Cc1cc(-c2ccccc2CCNC(=O)OCc2ccccc2)ccc1[C@H]1CNCC[C@@H]1c1cc(F)cc(F)c1 (racemic) [Structure 25] | 7.74 | 5.26
Cc1cc(-c2ccccc2CCNC(=O)CO)ccc1[C@H]1CNCC[C@@H]1c1cc(F)cc(F)c1 (racemic) [Structure 26] | 8.82 | 7.52
Cc1cc(-c2ccccc2CCN)ccc1[C@H]1CNCC[C@@H]1c1cc(F)cc(F)c1 (racemic) [Structure 27] | 7.09 | 5.98
COC(=O)NCCc1ccccc1-c1ccc([C@H]2CNCC[C@@H]2c2cc(F)cc(F)c2)c(C)c1 (racemic) [Structure 28] | 9.25 | 7.60
Cc1cc(-c2cccc3ccc(O)cc23)ccc1[C@H]1CNCC[C@@H]1c1cc(F)cc(F)c1 (racemic) [Structure 29] | 7.03 | < 4.55

Structure (SMILES) | pIC50 (Human recombinant renin) | pIC50 [1]
COCc1ccc2cccc(-c3ccc([C@H]4CNCC[C@@H]4c4cc(F)cc(F)c4)c(C)c3)c2c1 (racemic) [Structure 30] | 7.00 | 4.95
Cc1cc(-c2ccccc2CCNC(=O)C2CC2)ccc1[C@H]1CNCC[C@@H]1c1cc(F)cc(F)c1 (racemic) [Structure 31] | 8.36 | 6.89
Cc1cc(-c2ccccc2CCNC(=O)C(F)(F)C(F)(F)F)ccc1[C@H]1CNCC[C@@H]1c1cc(F)cc(F)c1 (racemic) [Structure 32] | 7.64 | 7.12
Cc1cc(-c2ccccc2CCNC(=O)CC(F)(F)F)ccc1[C@H]1CNCC[C@@H]1c1cc(F)cc(F)c1 (racemic) [Structure 33] | 8.68 | 6.92
Cc1ccccc1OCc1ccccc1-c1ccc([C@H]2CNCC[C@@H]2c2cc(F)cc(F)c2)c(C)c1 (racemic) [Structure 34] | 8.12 | 5.30
Cc1cc(-c2ccccc2COc2ccccc2)ccc1[C@H]1CNCC[C@@H]1c1cc(F)cc(F)c1 (racemic) [Structure 35] | 8.42 | 5.72
Cc1cc(-c2ccccc2COc2cccnc2)ccc1[C@H]1CNCC[C@@H]1c1cc(F)cc(F)c1 (racemic) [Structure 36] | 9.26 | 7.03
Cc1cc(-c2ccccc2OCc2ccccc2)ccc1[C@H]1CNCC[C@@H]1c1cc(F)cc(F)c1 (racemic) [Structure 37] | 7.06 | 4.91
Cc1cc(-c2ccccc2OCc2cccnc2)ccc1[C@H]1CNCC[C@@H]1c1cc(F)cc(F)c1 (racemic) [Structure 38] | 6.82 | < 4.55
COCCCc1ccccc1-c1ccc([C@H]2CNCC[C@]2(O)c2cc(F)cc(F)c2)c(C)c1 (racemic) [Structure 39] | 8.38 | 6.12
COCCCc1ccccc1-c1ccc([C@H]2CNCC[C@]2(O)c2cccnc2)c(C)c1 (racemic) [Structure 40] | 7.33 | 5.94
O=C(NCCc1ccccc1-c1ccc([C@H]2CNCC[C@@H]2c2ccc(F)c(F)c2)c(Cl)c1)C(F)(F)F (racemic) [Structure 41] | 10.00 | 8.18
COC(=O)NCCc1ccccc1-c1ccc([C@H]2CNCC[C@@H]2c2ccc(F)c(F)c2)c(Cl)c1 (racemic) [Structure 42] | 9.85 | 8.01
O=C(CO)NCCc1ccccc1-c1ccc([C@H]2CNCC[C@@H]2c2ccc(F)c(F)c2)c(Cl)c1 (racemic) [Structure 43] | 9.59 | 8.46
CC(=O)NCCc1ccccc1-c1ccc([C@H]2CNCC[C@@H]2c2ccc(F)c(F)c2)cc1 (racemic) [Structure 44] | 8.43 | 7.35
CC(=O)NCCc1ccccc1-c1ccc([C@H]2CNCC[C@@H]2c2cccnc2N)c(Cl)c1 (racemic) [Structure 45] | 6.15 | 5.34
CC(=O)NCCc1ccc(C(F)(F)F)cc1-c1ccc([C@H]2CNCC[C@@H]2c2ccc(F)c(F)c2)c(Cl)c1 (racemic) [Structure 46] | 9.11 | 6.55
CC(=O)NCCc1cc(C(F)(F)F)ccc1-c1ccc([C@H]2CNCC[C@@H]2c2ccc(F)c(F)c2)c(Cl)c1 (racemic) [Structure 47] | 9.23 | 6.85
COCCCc1ccccc1-c1ccc([C@H]2CNCC[C@]2(OCC(O)CO)c2ccc(F)c(F)c2)c(C)c1 (mixture of isomers) [Structure 48] | 7.80 | 5.69
CC(=O)NCc1ccccc1-c1ccc([C@H]2CNCC[C@@H]2c2ccc(F)c(F)c2)cc1 (racemic) [Structure 49] | 5.77 | 5.04
COCCCc1ccccc1-c1cc(C)c([C@H]2CNCC[C@@H]2c2ccc(Cl)c(F)c2)cn1 (racemic) [Structure 50] | 8.82 | 6.64
O[C@]1(c2ccc(F)c(F)c2)CCNC[C@@H]1c1cc(-c2ccc(F)cc2Cl)no1 [Structure 69] | 5.60 | 

From patent publication US20120035214A1, “RENIN INHIBITORS” (Merck Canada Inc., priority 2009, published 2012)
